Data on 10 compounds can be found in patent EP4711368A1 (priority 2023, dated 2024).

Like-named read-outs stand apart in the source and are kept apart here.

The subject of data set [1] is SD rats. Description: animal or person. The class given is in vivo. The following applies: iv; for Minimal effective anesthetic dose / Onset time / Righting feflex duration / Sedation Duration: rat, in vivo; for minimal effective dose: Rattus norvegicus.
For data set [2], the system named is SD rats. The following applies: rat, in vivo; for MLD: iv.
The mark [3] stands for this setting: read-out: Minimal effective anesthetic dose.
The mark [4] stands for this setting: read-out: Minimal effective analgesic dose.
For Onset time in this document: test concentration or dose not given here.
For Righting feflex duration in this document: test concentration or dose not given here.
For Sedation Duration in this document: test concentration or dose not given here.

Regarding `Cc1cnc2n1-c1ccc(Br)cc1C(c1ccccn1)=NC2COC(=O)CN(C)C` (centres unmarked) [Compound 196], in the data set on SD rats [1], the “Minimal effective anesthetic dose” value was determined as 15 mg/kg, the Onset time lay within 0.2 to 1.4 min, the Righting feflex duration was in the range of 9.5 to 23.6 min and the “Sedation Duration” value lay within 214.5 to 403.5 min. In the data set with SD rats [2], the TI worked out at 3.3 and the MLD is reported as 50 mg/kg.

As to `CC(C)n1nnnc1CCN1N=C(c2ccccn2)c2cc(Br)ccc2N(C)C1=O` [Compound 266], the minimal effective dose (commonly the smallest amount tested that counted as effective) with SD rats [1] (setting [3]) was 5 mg/kg. In the data set on SD rats [1], the Onset time lay in the range of 0.40 to 0.52 min, the Righting feflex duration is 0.58 to 4.00 min and the “Sedation Duration” value was in the range of 12.07 to 16.32 min. For the same compound, the TI with SD rats [2] (SD) is on record as 3. Further, the MLD with SD rats [2] is reported as 15 mg/kg.

As to `CN1C(=O)N(COC(=O)CCl)N=C(c2ccccn2)c2cc(Br)ccc21` [Compound 288], the minimal effective dose in the data set on SD rats [1] (setting [3]) turned out to be 15 mg/kg. In the data set with SD rats [1], the Onset time is reported as 0.80 min, the Righting feflex duration was 2.45 min and the “Sedation Duration” value is 33.18 min. For the same compound, in the data set with SD rats [2] (SD), the TI is on record as 1.3 and the MLD turned out to be 20 mg/kg.

Regarding `CCOC(=O)OCCC1N=C(c2ccccn2)c2cc(Br)ccc2-n2c(C)cnc21` (centres unmarked) [Compound 154], in the data set on SD rats [1], the “Minimal effective anesthetic dose” value was found to be 3.8 mg/kg, the Onset time fell in the range of 0.5 to 0.9 min, the Righting feflex duration fell in the range of 1.3 to 6.2 min and the “Sedation Duration” value was in the range of 14.1 to 17.0 min. In the data set with SD rats [2], this compound displayed a TI of 2.0 and an MLD of 7.5 mg/kg.

Turning to `CC(C)C(=O)OCCN1N=C(c2ccccn2)c2cc(Br)ccc2N(C)C1=O` [Compound 298], the minimal effective dose with SD rats [1] (setting [3]) was determined as 10 mg/kg. Besides, in the data set on SD rats [1], the Onset time was in the range of 0.22 to 0.38 min, the Righting feflex duration lay within 6.73 to 8.97 min and the “Sedation Duration” value lay in the range of 17.03 to 30.07 min. In the data set on SD rats [2] (SD), this compound yielded a TI of 2 and an MLD of 20 mg/kg.

With `CCOC(=O)CN1N=C(c2ccccn2)C=CN(C)C1=O` [Compound 347], in the data set with SD rats [1] (setting [4]), the minimal effective dose turned out to be 20 mg/kg. Also, the minimal effective dose with SD rats [1] (setting [3]) came to 20 mg/kg. Besides, in the data set with SD rats [1], the Onset time is 0.13 to 0.28 min, the Righting feflex duration was in the range of 2.25 to 4.47 min and the “Sedation Duration” value lay in the range of 15.35 to 54.20 min. This compound also showed a TI in the data set on SD rats [2] (SD) of 2. Also, in the data set with SD rats [2], the MLD is recorded as 40 mg/kg.

With `CC(C)OC(=O)CN1N=C(c2ccccn2)c2cc(Br)ccc2N(C(C)C)C1=O` [Compound 257], the minimal effective dose in the data set on SD rats [1] (setting [4]) is 10 mg/kg. Further, the minimal effective dose with SD rats [1] (setting [3]) was 10 mg/kg. In the data set with SD rats [1], the Onset time fell in the range of 0.77 to 1.48 min, the Righting feflex duration is 5.85 to 20.40 min and the “Sedation Duration” value was in the range of 33.47 to 64.03 min. In the data set with SD rats [2] (SD), this compound returned a TI of 4 and an MLD of 40 mg/kg.

As to `CN1C(=O)N(CC(=O)OC2CC2)N=C(c2ccccn2)c2cc(Br)ccc21` [Compound 244], in the data set on SD rats [1] (setting [3]), the minimal effective dose amounted to 15 mg/kg. In addition, in the data set with SD rats [1], the Onset time is 0.15 to 0.18 min, the Righting feflex duration is 0.78 to 3.85 min and the “Sedation Duration” value lay in the range of 11.42 to 18.83 min. Also, in the data set with SD rats [2] (SD), the TI was 2.7 and the MLD turned out to be 40 mg/kg.

For the compound `CCOC(=O)CN1N=C(c2ccccn2)c2cc(Br)ccc2-n2c(C)cnc21` [Compound 307], the minimal effective dose with SD rats [1] (setting [3]) came out at 8.75 mg/kg. Further, in the data set on SD rats [1], the Onset time fell in the range of 0.27 to 0.73 min, the Righting feflex duration lay within 0.90 to 4.27 min and the “Sedation Duration” value lay in the range of 20.87 to 32.75 min. In addition, in the data set on SD rats [2] (SD), the TI is listed as above 1.7 and the MLD is recorded as above 15.15 mg/kg.

Consider `CCOC(=O)CN1N=C(c2ccccn2)C(Cl)=CN(C)C1=O` [Compound 348], for which the minimal effective dose with SD rats [1] (setting [3]) came to 20 mg/kg. Further, in the data set on SD rats [1], the Onset time is on record as 0.75 min, the Righting feflex duration is on record as 2.03 min and the “Sedation Duration” value was 116.72 min. In the data set on SD rats [2] (SD), this compound came in with a TI above 1 and an MLD above 20 mg/kg.
